Data published in patent US20130203805A1, “Methods for treating anemia using inhibitors of hypoxia-inducible factor (HIF) hydroxylase” (FIBROGEN, INC., priority 2001, published 2013).
Like-named read-outs stand apart in the source and are kept apart here.

Type: in vivo, Sprague Dawley male rats
Conditions: rat, in vivo, ip
Method: The ability of a compound of the invention to treat anemia associated with post-ischemic acute renal failure was assayed using a procedure described by Vaziri et al. (1994, Am J Physiol 266(3 Pt 2):[…]-6.) Fifteen Sprague Dawley male rats (280-300 g) were obtained from Charles River Laboratories. On day 0, rats were treated by intraperitoneal injection with a single dose of saline (control; n=3) at 8 ml/kg, or cisplatin (CP; Bedford Laboratories, Bedford Ohio) at either 7 mg/kg (7 ml/kg; n=6) or 10 mg/kg (10 ml/kg; n=6). Blood samples (0.2 ml) were collected on days 5, 9, and 16 as follows. […] Blood samples were processed for hematocrit as described above to determine the degree of anemia produced in each animal. […] Blood samples (0.5 ml) were collected as described above immediately prior to treatment and 4 days after treatment initiation. Blood samples were analyzed for CBC and reticulocyte counts as described above. On day 9 after initiation of oral treatment, a blood sample (0.1 ml) was collected and processed for hematocrit as described above.

N.N.[Cl][Pt][Cl] [CP, cisplatin, reference compound]
reduction of hematocrit relative to controls (7 mg/kg): 14% | reduction of hematocrit relative to controls (10 mg/kg): 22%
